Values joined by “and” are separate entries in the source; they are usually repeats but may differ in a detail not shown here. Equal values may be shown once.

The subject of data set [1] is 293T cells. The experiment in a line: Fluorescent detection of Fluc-mRNA (cell transfection efficiency of LNP formulations). It counts as cell-based. As to conditions: for Relative light unit (RLU): LNP formulation containing 0.3 μg Fluc-mRNA, 96-well plate, 24 hours; for fluorescence absorption value, times that of HHMA: RLU of named substance / RLU of HHMA; for fluorescence absorption value, times that of Lipofectamine 3000: RLU of named substance / RLU of Lipofectamine 3000; for Ratio relative to SM-102: RLU of named substance / RLU of SM-102; for Fluc-mRNA expression signal intensity, times that of compound 21: RLU of named substance / RLU of compound 21; for fluorescence absorption value, times that of compound 23: RLU of named substance / RLU of compound 23; for Multiples (YK-101): RLU of YK-101 / RLU of named substance; for Multiples (YK-107): RLU of YK-107 / RLU of named substance; for Multiples (YK-108): RLU of YK-108 / RLU of named substance. The method, then: (§1) Cell recovery and passage: 293T cells were recovered, cultured in a culture dish, and passaged to the required number of cells.
(§2) Seeding plate: The cells in the culture dish were digested and counted. Cells were spread in a 96-well plate at 10,000 cells per well and in a 12-well plate at 150,000 cells per well. Cells were cultured overnight until the cells adhered to the wall.
Cell recovery and passage: the method was the same as in Example 3.
Seeding plate: the method was the same as in Example 3.
An LNP formulation containing 0.3 μg of Fluc-mRNA (the carrier components of the LNP formulation were cationic lipid, neutral lipid, structured lipid and polymer-conjugated lipid with a molar ratio of 49:10:39.5:1.5, wherein the cationic lipid was listed in Table 1) was added to the cell culture medium of a 96-well plate, and further incubated for 24 hours. The corresponding reagent was added according to the instructions of the Gaussia Luciferase Assay Kit, and the fluorescence expression intensity of each well was detected by an IVIS fluorescence detection system. This test verified the transfection efficiencies of LNP formulations in cells, see Tables 3-6 for specific test results.

In data set [2] the test system is 293T cells. Kind of data set: Cell survival rate determination (CCK-8). The class given is cell-based. The settings on record: for Cell survival rate (%): LNP formulation containing 1.5 μg Fluc-mRNA, 24 hours, CCK-8, absorbance at 450 nm; for cell survival rate lower than that of YK-101: cell survival rate of YK-101 minus that of named substance; for cell survival rate lower than that of YK-107: cell survival rate of YK-107 minus that of named substance; for cell survival rate lower than that of YK-108: cell survival rate of YK-108 minus that of named substance. Here is the method: as §1, §2
An LNP formulation containing 1.5 μg of Fluc-mRNA (the cater component of the LNP formulation were cationic lipid, neutral lipid, structured lipid and polymer-conjugated lipid with a molar ratio of 49: 10: 39.5: 1.5, wherein the cationic lipid was listed in Table 1) and the formulation of Lipofectamine 3000 were added to the cell culture medium of a 96-well plate, and further cultivated for 24 hours. 10 μL of CCK-8 solution was then added to each well, and the culture plate was incubated in an incubator for 1 hour. The absorbance at 450 nm was measured by a microplate reader.

`CCCCCCC(CCCCCC)CCOC(=O)CCCCCN(CCO)CCCCCC(=O)OCCSCCCC` [YK-112, 3-hexylnonyl-6-(6-(2-(butylthio)ethoxy)-6-oxohexyl)((2-hydroxyethyl)amino)hexanoate]: in the data set on 293T cells [1], the “Relative light unit (RLU)” value is 2012 RLU; the “fluorescence absorption value, times that of HHMA” value turned out to be 0.0010 times; the “fluorescence absorption value, times that of Lipofectamine 3000” value worked out at 0.0019 times; the “Ratio relative to SM-102” value was found to be 0.0013. In the data set on 293T cells [1], the “Fluc-mRNA expression signal intensity, times that of compound 21” value (from here on “Fluc-mRNA expression signal intensity”) is recorded as 0.0014 times and the “fluorescence absorption value, times that of compound 23” value is 0.0016 times. For the same compound, in the data set on 293T cells [2], the “Cell survival rate (%)” value is recorded as 9.82%; the “cell survival rate lower than that of YK-101” value was 80.30% and 80%; the “cell survival rate lower than that of YK-107” value was 80.63% and 80%; the “cell survival rate lower than that of YK-108” value was 80.04% and 80%.
With `CCCCCCCCCCOC(=O)CCCN(CCCCCC(=O)OCCC(CCCCCC)CCCCCC)C[C@H](O)CO` [YK-116, 3-hexylnonyl 6-(4-(decyloxy)-4-oxobutyl)(((S)-2,3-dihydroxypropyl)amino)hexanoate], in the data set with 293T cells [1], the “Relative light unit (RLU)” value turned out to be 1321284 RLU, the “Multiples (YK-101)” value amounted to 15.39, the “Multiples (YK-107)” value is listed as 16.92 and the “Multiples (YK-108)” value stood at 18.66. In the data set on 293T cells [1], the “fluorescence absorption value, times that of HHMA” value amounted to 0.65 times; the “fluorescence absorption value, times that of Lipofectamine 3000” value is given as 1.23 times; the “Ratio relative to SM-102” value was determined as 0.86; the “Fluc-mRNA expression signal intensity” value came to 0.95 times. Moreover, the “fluorescence absorption value, times that of compound 23” value in the data set with 293T cells [1] amounted to 1.02 times. In addition, in the data set with 293T cells [2], the “Cell survival rate (%)” value worked out at 67.96%, the “cell survival rate lower than that of YK-101” value is recorded as 22.16%, the “cell survival rate lower than that of YK-107” value is recorded as 22.49% and the “cell survival rate lower than that of YK-108” value turned out to be 21.90%.
Regarding `CCCCCCCCCCOC(=O)CCCN(CCCCCC(=O)OCCC(CCCCCC)CCCCCC)C[C@H](C)O` [YK-117, 3-hexylnonyl 6-(4-(decyloxy)-4-oxobutyl)(((S)2-hydroxypropyl)amino)hexanoate], in the data set on 293T cells [1], the “cell transfection efficiency, times that of YK-118” value is reported as 33 times; the “cell transfection efficiency, times that of YK-119” value was 80 times; the “Relative light unit (RLU)” value was 695716 RLU; the “Multiples (YK-101)” value is 29.23. Further, in the data set with 293T cells [1], the “Multiples (YK-107)” value came to 32.14; the “Multiples (YK-108)” value amounted to 35.45; the “fluorescence absorption value, times that of HHMA” value amounted to 0.34 times; the “fluorescence absorption value, times that of Lipofectamine 3000” value came out at 0.65 times. In the data set on 293T cells [1], the “Ratio relative to SM-102” value is recorded as 0.45; the “Fluc-mRNA expression signal intensity” value worked out at 0.50 times; the “fluorescence absorption value, times that of compound 23” value is reported as 0.54 times. Moreover, in the data set with 293T cells [2], the “Cell survival rate (%)” value was 57.93%, the “cell survival rate lower than that of YK-101” value is 32.19%, the “cell survival rate lower than that of YK-107” value was 32.52% and the “cell survival rate lower than that of YK-108” value worked out at 31.93%.
For `CCCCCCCCCCOC(=O)CCCN(CCCCCC(=O)OCCC(CCCCCC)CCCCCC)CCC(C)(C)O` [YK-119, 3-hexylnonyl 6-(4-(decyloxy)-4-oxobutyl)((3-hydroxy-3-methylbutyl)amino)hexanoate], in the data set on 293T cells [1], the “Relative light unit (RLU)” value was determined as 8557 RLU; the “fluorescence absorption value, times that of HHMA” value is on record as 0.0042 times; the “fluorescence absorption value, times that of Lipofectamine 3000” value is 0.0080 times; the “Ratio relative to SM-102” value stood at 0.0056. Further, in the data set on 293T cells [1], the “Fluc-mRNA expression signal intensity” value was 0.0062 times and the “fluorescence absorption value, times that of compound 23” value is reported as 0.0066 times. In addition, in the data set on 293T cells [2], the “Cell survival rate (%)” value turned out to be 80.27%, the “cell survival rate lower than that of YK-101” value came out at 9.85%, the “cell survival rate lower than that of YK-107” value is listed as 10.18% and the “cell survival rate lower than that of YK-108” value is 9.59%.
For the compound `CCCCCCCCC(CCCCCCCC)COC(=O)CCCCCN(CCO)CCCCCC(=O)OCCSCCCC` [YK-113, 2-octyldecyl 6-(6-(2-(butylthio)ethoxy)-6-oxohexyl)((2-hydroxyethyl)amino)hexanoate], in the data set on 293T cells [1], the “cell transfection activity, times that of YK-112” value is given as “up to 75 times”; the “Relative light unit (RLU)” value was determined as 151694 RLU; the “Multiples (YK-101)” value worked out at 134.05; the “Multiples (YK-108)” value is on record as 162.57. In the data set on 293T cells [1], the “fluorescence absorption value, times that of HHMA” value is 0.07 times; the “fluorescence absorption value, times that of Lipofectamine 3000” value worked out at 0.14 times; the “Ratio relative to SM-102” value amounted to 0.10; the “Fluc-mRNA expression signal intensity” value turned out to be 0.11 times. Also, the “fluorescence absorption value, times that of compound 23” value in the data set on 293T cells [1] is listed as 0.12 times. Further, in the data set with 293T cells [2], the “Cell survival rate (%)” value is 43.05%; the “cell survival rate lower than that of YK-101” value is 47.07% and 40%; the “cell survival rate lower than that of YK-107” value is 47.40% and 40%; the “cell survival rate lower than that of YK-108” value is 46.81% and 40%.
On to `CCCCCCC(CCCCCC)CCOC(=O)CCCCCN(CCO)CCCCCC(=O)OCCCSSCCCCC` [YK-110], for which, in the data set on 293T cells [1], the “Relative light unit (RLU)” value worked out at 271783 RLU, the “Multiples (YK-101)” value is given as 74.82, the “Multiples (YK-107)” value is recorded as 82.28 and the “Multiples (YK-108)” value came out at 90.74. For the same compound, in the data set with 293T cells [1], the “fluorescence absorption value, times that of HHMA” value turned out to be 0.13 times; the “fluorescence absorption value, times that of Lipofectamine 3000” value is 0.25 times; the “Ratio relative to SM-102” value came to 0.18; the “Fluc-mRNA expression signal intensity” value was 0.20 times. The “fluorescence absorption value, times that of compound 23” value in the data set with 293T cells [1] is on record as 0.21 times. Besides, in the data set with 293T cells [2], the “Cell survival rate (%)” value was found to be 42.85%, the “cell survival rate lower than that of YK-101” value is 40%, the “cell survival rate lower than that of YK-107” value turned out to be 40% and the “cell survival rate lower than that of YK-108” value was 40%.
Regarding `CCCCCCCCCCOC(=O)CCCN(CCCCCC(=O)OCCC(CCCCCC)CCCCCC)CCC(C)O` (centres unmarked) [YK-118, 3-hexylnonyl 6-(4-(decyloxy)-4-oxobutyl)((3-hydroxybutyl)amino)hexanoate], in the data set on 293T cells [1], the “Relative light unit (RLU)” value was 21310 RLU; the “Multiples (YK-107)” value stood at 1049.33; the “Multiples (YK-108)” value is reported as 1157.23; the “fluorescence absorption value, times that of HHMA” value stood at 0.0104 times. In the data set on 293T cells [1], the “fluorescence absorption value, times that of Lipofectamine 3000” value was found to be 0.0199 times; the “Ratio relative to SM-102” value is recorded as 0.0139; the “Fluc-mRNA expression signal intensity” value is listed as 0.0153 times; the “fluorescence absorption value, times that of compound 23” value was 0.0165 times. Besides, in the data set on 293T cells [2], the “Cell survival rate (%)” value amounted to 63.33%, the “cell survival rate lower than that of YK-101” value was 26.79%, the “cell survival rate lower than that of YK-107” value is 27.12% and the “cell survival rate lower than that of YK-108” value is 26.53%.
